Reference: patent publication US8569339B2, “Soluble guanylate cyclase activators” (Boehringer Ingelheim International GmbH, priority 2011, dated 2013)
Converted amounts (≈) assume the structure as drawn. “And” between values parts separate entries of the source, which are not always exact repeats. Identical values can stand only once.

Columns and labels:
[1] = Assessment of solubility (HT solubility, pION, UV); type: physicochemical; details: incubated 16-19 hours, 1.0% DMSO, 100 uM; for solubility kinetic: pH 4.5 buffer (pION system solution), pH 4.5, aqueous buffer, kinetic from dmso stock, read-out: Sol pH 4.5; for Sol pH 7.4: pH 7.4 buffer
Outline: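 Compounds were taken from 10 mM DMSO stocks into pH 4.5 or pH 7.4 buffer at 100 uM final (1.0% DMSO), run in duplicate, and incubated sealed for 16-19 h. Filtrates were diluted with N-propanol and read by UV at 250-498 nm against blank and reference spectra, […].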

[2] = target: T1, Recombinant human soluble guanylate cyclase (sGC) (Homo sapiens, UniProt Q02153); assay: Molecular assay: activation of heme-free sGC, cGMP detection (CisBio kit); type: biochemical; details: 300 pM heme-free sGC, 37° C., 60 minutes, cGMP formation
T1 construct: histidine tag (C); made in house; host or cells: Sf9 insect cells (baculovirus coinfection)
Outline: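 Heme-free human α1/β1 sGC (His-tagged, Sf9-expressed, Tween 20-treated) at 300 pM incubated with compound in pH 6.8 MOPS buffer with 50 nM GTP, IBMX, 1% DMSO, 60 min at 37 °C. cGMP quantified by HTRF against a calibration curve; EC50 from combined undiluted and 80-fold diluted readings.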

T1 sequence (Q02108 whole entry partner): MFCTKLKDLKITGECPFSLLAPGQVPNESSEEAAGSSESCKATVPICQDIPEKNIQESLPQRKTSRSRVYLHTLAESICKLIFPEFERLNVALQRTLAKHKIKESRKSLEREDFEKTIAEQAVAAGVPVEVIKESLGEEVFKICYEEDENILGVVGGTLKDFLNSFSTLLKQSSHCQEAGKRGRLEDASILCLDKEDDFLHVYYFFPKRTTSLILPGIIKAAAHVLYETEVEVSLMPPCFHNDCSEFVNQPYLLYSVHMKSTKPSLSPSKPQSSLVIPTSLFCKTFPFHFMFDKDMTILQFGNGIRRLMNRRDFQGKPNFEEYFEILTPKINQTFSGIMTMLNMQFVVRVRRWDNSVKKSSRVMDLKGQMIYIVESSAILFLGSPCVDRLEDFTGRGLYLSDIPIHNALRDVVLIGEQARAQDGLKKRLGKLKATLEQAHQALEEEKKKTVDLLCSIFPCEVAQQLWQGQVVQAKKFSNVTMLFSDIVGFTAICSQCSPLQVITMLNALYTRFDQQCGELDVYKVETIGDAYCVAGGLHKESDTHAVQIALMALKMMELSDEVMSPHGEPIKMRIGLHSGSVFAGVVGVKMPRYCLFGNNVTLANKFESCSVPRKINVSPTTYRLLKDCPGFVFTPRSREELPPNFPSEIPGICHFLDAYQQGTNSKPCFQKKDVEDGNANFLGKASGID
T1 sequence (Q02153 whole entry): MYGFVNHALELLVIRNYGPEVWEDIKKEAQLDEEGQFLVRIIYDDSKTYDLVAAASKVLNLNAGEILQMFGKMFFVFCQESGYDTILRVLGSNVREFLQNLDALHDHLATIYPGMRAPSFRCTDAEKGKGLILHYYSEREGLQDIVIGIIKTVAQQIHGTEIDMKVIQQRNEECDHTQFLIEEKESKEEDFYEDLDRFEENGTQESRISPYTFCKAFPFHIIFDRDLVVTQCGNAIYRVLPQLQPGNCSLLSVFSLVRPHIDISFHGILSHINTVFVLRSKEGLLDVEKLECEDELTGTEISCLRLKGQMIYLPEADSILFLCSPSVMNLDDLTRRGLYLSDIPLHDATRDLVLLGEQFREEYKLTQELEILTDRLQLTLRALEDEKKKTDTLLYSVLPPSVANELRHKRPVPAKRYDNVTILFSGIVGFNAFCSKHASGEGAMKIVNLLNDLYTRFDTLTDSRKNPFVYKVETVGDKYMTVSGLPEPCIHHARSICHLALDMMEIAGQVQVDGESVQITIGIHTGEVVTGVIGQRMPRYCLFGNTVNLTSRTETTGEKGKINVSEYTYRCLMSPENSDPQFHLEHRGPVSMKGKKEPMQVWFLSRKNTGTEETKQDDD

Row | Structure (SMILES) | solubility kinetic ([1]; pH 4.5 buffer) | Sol pH 7.4 [1] | EC50 [2] | Sol pH 4.5 ([1]; pH 4.5 buffer)
1 | Cc1ccc(OCc2ccc3c(c2)CN(C)CC3)c(-c2cccc(-n3ncc(C(=O)O)c3C(F)(F)F)n2)c1 [Compound 52] | > 63 µg/mL | 42.1 μg/mL | 550 nM | 
2 | CC(=O)N1CCc2cc(COc3ccc(C)cc3-c3cccc(-n4ncc(C(=O)O)c4C(F)(F)F)n3)ccc2C1 [Compound 6, 1-{6-[2-(2-acetyl-1,2,3,4-tetrahydroisoquinolin-6-ylmethoxy)-5-methylphenyl]pyridin-2-yl}-5-trifluoromethyl-1H-pyrazole-4-carboxylic acid] | 0.5 µg/mL (≈ 0.908 µM) | >54 μg/mL | 78 nM | 
3 | Cc1ccc(OCc2ccc3c(c2)CCN(CCC2CCOCC2)C3)c(-c2cccc(-n3ncc(C(=O)O)c3C(F)(F)F)n2)c1 [Compound 25] | > 62 µg/mL | >62 μg/mL | 19 nM | 
4 | Cc1ncc(CN2CCc3cc(COc4c(C)cccc4-c4cccc(-c5ncc(C(=O)O)n5C)n4)ccc3C2)s1 [Compound 70] | > 66 µg/mL | >66 μg/mL | 37 nM | 
5 | Cc1ccc(OCc2ccc3c(c2)N(C)CCC3)c(-c2cccc(-n3ncc(C(=O)O)c3C(F)(F)F)n2)c1 [Compound 13] | 8.1 µg/mL (≈ 15.5 µM) | >52 μg/mL | 79 nM | 

Results, then the compound that gave them:

Row | solubility kinetic ([1]; pH 4.5 buffer) | Sol pH 7.4 [1] | EC50 [2] | Sol pH 4.5 ([1]; pH 4.5 buffer) | Structure (SMILES)
6 | > 66 µg/mL | >66 μg/mL and >68 μg/mL | 27 nM | >68 μg/mL | Cc1cccc(-c2cccc(-c3ncc(C(=O)O)n3C)n2)c1OCc1ccc2c(c1)CCN(C1CCC(F)(F)CC1)C2 [Compound 74]
7 | > 67 µg/mL | >67 μg/mL | 159 nM |  | CCn1cc(CN2CCc3cc(COc4c(C)cccc4-c4cccc(-c5ncc(C(=O)O)n5C)n4)ccc3C2)cn1 [Compound 71]
